Experimental data from ChEMBL document CHEMBL1201862, “PubChem BioAssay data set” (2004).
Activity calls are given as the source filed them.

Key:
[1] = target: T1, COUP transcription factor 2 (Homo sapiens, UniProt P24468); test: Luminescence-based cell-based high throughput dose response assay to identify inhibitors of COUP-TFII (NR2F2).; type: functional;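 note: HEK293 cells transiently cotransfected with COUP-TFII expression vector and reporter; luciferase reporter luminescence driven by COUP-TFII from the pX2-168 reporter plasmid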
T1 sequence (P24468 whole entry): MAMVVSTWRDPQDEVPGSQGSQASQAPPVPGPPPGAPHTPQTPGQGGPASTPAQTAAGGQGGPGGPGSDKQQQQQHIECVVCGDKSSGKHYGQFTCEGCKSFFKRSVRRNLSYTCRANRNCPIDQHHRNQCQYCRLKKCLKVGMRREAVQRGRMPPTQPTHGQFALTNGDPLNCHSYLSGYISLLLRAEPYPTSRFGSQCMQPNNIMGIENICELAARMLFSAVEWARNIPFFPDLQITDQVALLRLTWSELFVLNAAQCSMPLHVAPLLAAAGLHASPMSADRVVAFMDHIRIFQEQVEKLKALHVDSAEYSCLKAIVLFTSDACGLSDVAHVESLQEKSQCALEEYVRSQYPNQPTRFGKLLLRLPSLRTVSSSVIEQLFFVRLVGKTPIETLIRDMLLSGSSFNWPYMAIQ

[2] = HGIII-sPLA2 enzyme inhibition potency – biochemical, QFRET, IC50, dose response (AID 743457);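 note: green fluorescence rise as the enzyme cleaves BODIPY PC-A2 in liposomes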
[3] = cells; type: functional, cell-based
[4] = target: T2, Trace amine-associated receptor 1 (Homo sapiens, UniProt Q96RJ0); test: Fluorescence-based cell-based high throughput dose response assay to identify agonists of the human trace amine associated receptor 1 (TAAR1).; type: functional
T2 sequence (Q96RJ0 whole entry): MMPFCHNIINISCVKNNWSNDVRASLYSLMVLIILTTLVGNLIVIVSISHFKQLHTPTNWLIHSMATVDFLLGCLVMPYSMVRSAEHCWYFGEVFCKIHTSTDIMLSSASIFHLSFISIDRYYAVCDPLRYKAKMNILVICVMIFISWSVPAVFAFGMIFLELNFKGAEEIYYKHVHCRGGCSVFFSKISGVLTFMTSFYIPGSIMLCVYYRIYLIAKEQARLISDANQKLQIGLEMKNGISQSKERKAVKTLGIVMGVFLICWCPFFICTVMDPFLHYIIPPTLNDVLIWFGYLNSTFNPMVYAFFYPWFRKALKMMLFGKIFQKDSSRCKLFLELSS

[5] = target: T2, Trace amine-associated receptor 1; test: Counterscreen for agonists of the human trace amine associated receptor 1 (hTAAR1): Fluorescence-based cell-based high throughput dose response assay to identify hTAAR1 agonist that also desensitize TAAR1 receptor response.; type: functional
[6] = cells; type: functional, cell-based; remark: listed apart in the source
[7] = target: T3, RNA-binding protein pos-1 (Caenorhabditis elegans, UniProt G5EF15); test: disruptors of C. elegans POS-1 RNA interaction – biochemical, fluorescence polarization, dose response (AID 1964);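 note: purified POS-1 fused to maltose binding protein made in E. coli; potency of compounds blocking POS-1 binding to fluorescent RNA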
T3 sequence (G5EF15 whole entry): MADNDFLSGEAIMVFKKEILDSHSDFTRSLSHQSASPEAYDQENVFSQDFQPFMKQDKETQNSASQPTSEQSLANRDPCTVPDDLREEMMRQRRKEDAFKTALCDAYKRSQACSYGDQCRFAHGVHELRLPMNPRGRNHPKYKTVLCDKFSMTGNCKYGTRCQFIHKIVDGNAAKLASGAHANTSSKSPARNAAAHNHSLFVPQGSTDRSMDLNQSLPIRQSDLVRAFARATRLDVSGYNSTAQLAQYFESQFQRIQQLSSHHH

[8] = target: T4, Zinc finger protein mex-5 (Caenorhabditis elegans, UniProt Q9XUB2); test: potency of MEX-5 RNA-binding blockers – biochemical, C. elegans, fluorescence polarization, dose response (AID 1960)
T4 sequence (Q9XUB2 whole entry): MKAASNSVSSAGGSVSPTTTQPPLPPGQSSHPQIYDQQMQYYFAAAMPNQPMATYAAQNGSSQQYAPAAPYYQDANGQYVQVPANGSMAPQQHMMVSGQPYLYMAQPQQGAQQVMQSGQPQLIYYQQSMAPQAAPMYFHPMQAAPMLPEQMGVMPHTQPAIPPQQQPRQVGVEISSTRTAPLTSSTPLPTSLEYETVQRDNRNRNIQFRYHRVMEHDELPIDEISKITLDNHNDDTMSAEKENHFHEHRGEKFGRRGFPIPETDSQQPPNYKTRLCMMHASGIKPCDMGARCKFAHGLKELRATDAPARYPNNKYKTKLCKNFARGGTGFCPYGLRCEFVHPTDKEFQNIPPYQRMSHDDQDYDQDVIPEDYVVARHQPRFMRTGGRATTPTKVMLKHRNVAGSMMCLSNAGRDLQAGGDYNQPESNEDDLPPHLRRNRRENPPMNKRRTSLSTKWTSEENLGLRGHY

[9] = target: Beta-lactamase (Pseudomonas aeruginosa, UniProt Q79MP6);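 note: biochemical dose-response test of metallo-beta-lactamase enzyme inhibition, read out by epi-absorbance; purified recombinant IMP-1 metallo-beta-lactamase with nitrocefin as substrate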
[10] = target: Beta-lactamase (Salmonella choleraesuis (strain SC-B67), UniProt Q5J463)
[11] = target: Voltage-dependent T-type calcium channel subunit alpha-1H (Homo sapiens, UniProt O95180); type: functional;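 note: channel activity triggered by adding a high calcium stimulation buffer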
[12] = blockers of HIV-1 envelope-mediated cell-cell fusion – cherry-pick, dose response (AID 652057); type: functional, cell-based
[13] = viability loss in CEM21 cells – cell-based, CellTiter-Glo luminescence, cherry-picked, cytotoxicity control for viral fusion inhibitor project, dose response (AID 652042); type: functional;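 note: potency for signal decrease meaning cytotoxicity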
[14] = blockers of HIV-1 ZM109 envelope-driven cell-cell fusion – HeLa effector, CEM target cells, luciferase, cherry-pick, dose response (AID 652058); type: functional, cell-based;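 note: luciferase signal from HIV-1 Env mediated cell-cell fusion of effector and target cells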
[15] = off-target signal loss in HeLa-CEM21 co-culture – HeLa F-luc CTL cells, cherry-picked, counter-screen for HIV-1 Env fusion inhibitor project, dose response (AID 652040); type: functional, cell-based;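 note: potency for signal decrease marking cytotoxic or nonspecific inhibition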
[16] = HIV-1 AD8 envelope cell-cell fusion blockers – cherry-pick, dose response (AID 652062); type: functional, cell-based;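 note: luciferase signal from cell-cell fusion driven by HIV-1 clade B AD8 Env; potency is for inhibitors of fusion seen as a drop in luminescence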
[17] = target: T5, Low molecular weight phosphotyrosine protein phosphatase (Homo sapiens, UniProt P24666); type: functional; conditions: read-out: IC50_Mean;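 note: Dose-response confirmation assay measuring inhibition of LMPTP enzyme activity by fluorescence intensity read-out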
T5 sequence (P24666 whole entry): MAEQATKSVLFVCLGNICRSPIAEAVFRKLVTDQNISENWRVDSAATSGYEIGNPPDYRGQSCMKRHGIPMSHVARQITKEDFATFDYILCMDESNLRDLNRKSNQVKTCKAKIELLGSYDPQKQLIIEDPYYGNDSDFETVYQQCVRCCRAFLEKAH

[18] = A549 cell cytotoxicity, dose response, cytotoxicity control, plate reader, cherry-pick, antagonist series (AID 743412); type: functional, cell-based
[19] = toxicity toward HepG2 liver cells – cell-based, plate reader, cherry-pick, antagonist series, cytotoxicity control, dose response (AID 743416); type: functional
[20] = blockers of bursicon-stimulated LGR2 cAMP reporter – cell-based, HEK293, CRE-luciferase reporter, cherry pick, set 2, dose response (AID 743343); type: functional;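 note: transfected cells were stimulated with diluted bursicon conditioned medium after compound addition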
[21] = blockade of melanocortin 4 receptor signaling – cell-based, plate reader, cherry pick, counter-screen for LGR2 antagonist project, dose response (AID 743444); type: functional;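 note: transfected HEK 293 cells stimulated with alpha-MSH peptide; potency of inhibitors of the alpha-MSH evoked signal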
[22] = viability loss in HEK293 cells – cell-based, plate reader, cherry-picked samples, cytotoxicity control, dose response (AID 743446); type: functional
[23] = target: Major prion protein (Homo sapiens, UniProt P04156); type: functional, cell-based
[24] = cells
[25] = target: Glucose-6-phosphate 1-dehydrogenase (Homo sapiens, UniProt P11413); test: inhibition of Homo sapiens G6PD, dose series – biochemical, fluorescence, selectivity assay for P. falciparum G6PD inhibitor project, dose response (AID 504792); type: functional
[26] = test system: Vero; test: cells; type: functional; conditions: Chlorocebus sabaeus
[27] = viability loss in HeLa cells – cytotoxicity control for MgcRacGAP inhibitor project, dose response (AID 624300); type: functional
[28] = target: T6, Rac GTPase-activating protein 1 (Homo sapiens, UniProt Q9H0H5); test: blockers of MgcRacGAP-driven Rac1 GTP hydrolysis – biochemical, ADP Hunter fluorescence, primary and confirmatory, confirmation (AID 624330); type: functional
T6 sequence (Q9H0H5 whole entry): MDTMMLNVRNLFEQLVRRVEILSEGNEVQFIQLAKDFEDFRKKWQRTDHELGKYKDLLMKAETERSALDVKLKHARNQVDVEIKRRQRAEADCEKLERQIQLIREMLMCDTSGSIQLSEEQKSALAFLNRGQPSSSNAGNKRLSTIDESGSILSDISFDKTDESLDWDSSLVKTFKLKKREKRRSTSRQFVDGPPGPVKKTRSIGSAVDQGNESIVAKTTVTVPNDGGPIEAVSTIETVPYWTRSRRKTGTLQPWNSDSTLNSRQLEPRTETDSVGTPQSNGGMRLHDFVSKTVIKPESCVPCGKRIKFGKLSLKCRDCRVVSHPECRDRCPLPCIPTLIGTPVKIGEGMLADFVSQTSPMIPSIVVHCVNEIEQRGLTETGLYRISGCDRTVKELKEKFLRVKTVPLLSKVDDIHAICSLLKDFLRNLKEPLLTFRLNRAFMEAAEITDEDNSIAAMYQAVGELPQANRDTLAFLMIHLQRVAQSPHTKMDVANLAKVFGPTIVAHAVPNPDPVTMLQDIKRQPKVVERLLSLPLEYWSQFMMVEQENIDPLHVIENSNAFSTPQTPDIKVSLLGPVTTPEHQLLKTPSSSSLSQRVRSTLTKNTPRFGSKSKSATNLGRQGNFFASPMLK

[29] = target: Albumin (Bos taurus, UniProt P02769); test: Counterscreen for inhibitors of T-cell receptor (TCR)-CD3 interaction: Fluorescence-based biochemical high throughput dose response assay to identify inhibitors of T-cell receptor (TCR)-CD3 interaction using a TAMRA-labeled BSA probe.; type: functional

CC(=O)N[C@@H](C)c1nc2ccccc2n1CCCN1CCN(c2nc(-c3ccc(C)cc3)cs2)CC1
IC50 [1]: 6.84 µM (active)

O=C(CNc1cccc(Cl)c1)NNC(=S)NCc1ccccc1
IC50 [2]: > 122 µM (inactive)

Clc1ccc(CCNCc2ccncc2)c(Cl)c1
IC50 [3]: > 29.9 µM (inactive)
EC50 [4]: 2.01 µM (active)
IC50 [5]: 6.77 µM (active)
EC50 [6]: > 29.9 µM (inactive)

CCCCCCn1c(=O)[nH]c2nc3cc(N)ccc3nc2c1=O
EC50 [7]: > 300 µM (inconclusive)
EC50 [8]: > 300 µM (inconclusive)
IC50 [9]: > 59.6 µM (inactive)
IC50 [10]: 9.7 µM (active)

CCOc1ccc([N+](=O)[O-])cc1CNCCc1ccccc1
IC50 [3]: > 29.9 µM (inactive)
EC50 [4]: 0.337 µM (active)
IC50 [5]: 4.18 µM (active)
EC50 [6]: > 29.9 µM (inactive)

Clc1ccc(-n2ncc3c(NCCN4CCOCC4)ncnc32)cc1
IC50 [1]: 35.7 µM (inactive)

Clc1ccc(C(c2nnnn2CCc2ccccc2)N2CCSCC2)cc1 (stereo not drawn)
EC50 [11]: 8.87 µM (active)
AC50 [12]: 2 µM (active)
AC50 [13]: 62.2 µM (active)
AC50 [14]: 7.63 µM (active)
AC50 [15]: 4.45 µM (active)
AC50 [16]: 1.14 µM (active)

CCn1c(=S)sc2c(=O)n(CC(=O)Nc3ccccc3C(F)(F)F)c(C)nc21
IC50 [9]: 22.7 µM (inactive)
IC50 [10]: > 59.6 µM (inactive)
IC50 [17]: 16.2 µM (active)

COc1ccc(Cl)cc1C(=O)NN=C(S)NC1CCCC1
IC50 [2]: > 122 µM (inactive)

O=C(Nc1ccc(N2CCN(C(=O)c3ccccc3)CC2)c(Cl)c1)c1ccc(Br)o1
AC50 [18]: 34.9 µM (active)
AC50 [19]: 35 µM (active)
AC50 [20]: 16.6 µM (active)
AC50 [21]: 14.9 µM (active)
AC50 [22]: 21.5 µM (active)

O=C(O)c1ccccc1SCc1csc(-c2ccccc2)n1
IC50 [23]: 6.49 µM (active)
IC50 [24]: > 138 µM (inactive)

CN(C)c1nc(=NCc2cccs2)ss1
IC50 [25]: > 80 µM (inactive)
CC50 [26]: 19 µM (active)
CC50 [27]: 100 µM (active)
IC50 [28]: 134 µM (active)

CCOc1ccc(C(=O)C2=C(O)C(=O)N(c3ccccn3)C2c2ccccc2F)c(C)c1 (stereo not drawn)
IC50 [23]: 5.58 µM (active)
IC50 [24]: > 138 µM (inactive)

Cc1ccc(S(=O)(=O)Nc2ccc3c(c2)C(=O)N([C@H](C)CO)C[C@@H](C)[C@@H](CN(C)Cc2ccc(-c4ccccc4)cc2)O3)cc1
AC50 [12]: 18 µM (active)
AC50 [13]: 21.8 µM (active)
AC50 [14]: 16.6 µM (active)
AC50 [16]: 17.4 µM (active)

N#C[C@H]1[C@@H](c2ccc(-c3ccccc3)cc2)[C@@H](CO)N1S(=O)(=O)Cc1ccccc1
AC50 [12]: 1.93 µM (active)
AC50 [13]: 41.5 µM (active)
AC50 [16]: 4.94 µM (active)

COc1ccccc1CCn1cnc(-c2ccccc2OC)c1C(C)C
IC50 [3]: 11.8 µM (inactive)
EC50 [4]: 5.14 µM (active)
IC50 [5]: 3.82 µM (active)
EC50 [6]: > 29.9 µM (inactive)
AC50 [19]: 29.8 µM (active)
AC50 [21]: 29.4 µM (active)
AC50 [22]: > 52 µM (inactive)

O=C(NNC(=O)c1c(O)c2ccccc2[nH]c1=O)c1ccccc1
IC50 [29]: > 94.1 µM (inactive)
